Measurements published in US20210171598A1, “PEPTIDE HORMONE WITH ONE OR MORE O-GLYCANS” (priority 2017, published 2021).
Where two headings read alike, the source gives them in different places.

Target: neprilysin (NEP) (Homo sapiens, UniProt P08473)
Assay: In vitro degradation by neprilysin, MALDI-TOF time course
Description: Many peptide hormones are destined for endocrine circulation where they are rapidly degraded with half-lives reaching only a few minutes^6-8.
For enzymatic degradation assays using either NEP or DPP-IV (R&D systems, UK), an enzyme titration was carried out to ensure full degradation within one hour of reaction time.
MALDI-TOF-MS was performed on a Bruker Autoflex instrument (Bruker Daltonik GmbH, Bremen, Germany) by mixing the quenched aliquots with a saturated solution of α-Cyano-4-hydroxycinnamic acid in ACN/H2O/TFA (70:30:0.1) at a ratio 1:1 on a target steel plate and mass-spectra were acquired in linear mode.
Reactions were performed in 50 mM Tris, 0.05% Brij-35, pH 9 (Neprilysin), or 50 mM Tris, 20 mM NaCl, pH 7.5 (IDE) and incubated at 37° C.

Chain of neprilysin (NEP) (P08473 whole entry): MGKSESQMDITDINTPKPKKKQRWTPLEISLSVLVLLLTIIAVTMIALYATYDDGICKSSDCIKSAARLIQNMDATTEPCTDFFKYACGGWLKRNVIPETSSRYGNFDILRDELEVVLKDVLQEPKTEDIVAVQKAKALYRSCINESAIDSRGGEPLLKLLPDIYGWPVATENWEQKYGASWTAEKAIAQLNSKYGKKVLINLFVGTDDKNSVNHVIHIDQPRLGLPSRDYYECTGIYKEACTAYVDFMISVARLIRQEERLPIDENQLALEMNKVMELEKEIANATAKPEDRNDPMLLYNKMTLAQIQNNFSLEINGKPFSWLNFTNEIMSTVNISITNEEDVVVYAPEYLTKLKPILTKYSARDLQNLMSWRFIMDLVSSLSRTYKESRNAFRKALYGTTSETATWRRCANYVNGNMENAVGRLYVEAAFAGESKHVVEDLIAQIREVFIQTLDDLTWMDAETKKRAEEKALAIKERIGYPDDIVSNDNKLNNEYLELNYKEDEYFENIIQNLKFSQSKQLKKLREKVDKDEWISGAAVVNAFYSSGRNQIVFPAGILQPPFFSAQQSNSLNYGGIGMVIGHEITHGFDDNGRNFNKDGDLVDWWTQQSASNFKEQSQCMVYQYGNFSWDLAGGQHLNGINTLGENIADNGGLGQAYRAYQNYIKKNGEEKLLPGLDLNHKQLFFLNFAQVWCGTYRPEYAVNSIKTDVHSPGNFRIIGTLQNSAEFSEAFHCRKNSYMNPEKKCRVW

## Galanin-Ser55/ST: sialylated Galanin variant
  remained intact / resistant to NEP degradation even after: 24 h
  state after overnight incubation with neprilysin: remained partially intact

## CC[C@H](C)[C@@H]1NC(=O)[C@H](CCCNC(=N)N)NC(=O)[C@H](CC(=O)O)NC(=O)[C@H](CCSC)NC(=O)[C@H](CCCNC(=N)N)NC(=O)CNC(=O)CNC(=O)[C@H](Cc2ccccc2)NC(=O)[C@@H](NC(=O)[C@H](CO)NC(=O)[C@H](CO)NC(=O)[C@H](CCCNC(=N)N)NC(=O)[C@H](CCCNC(=N)N)NC(=O)[C@H](CC(C)C)NC(=O)[C@@H](N)CO)CSSC[C@@H](C(=O)N[C@@H](CC(N)=O)C(=O)N[C@@H](CO[C@H]2O[C@H](CO)[C@H](O)[C@H](O)[C@H]2NC(C)=O)C(=O)N[C@@H](Cc2ccccc2)C(=O)N[C@@H](CCCNC(=N)N)C(=O)N[C@@H](Cc2ccc(O)cc2)C(=O)O)NC(=O)CNC(=O)[C@H](CC(C)C)NC(=O)CNC(=O)[C@H](CO)NC(=O)[C@H](CCC(N)=O)NC(=O)[C@H](C)NC(=O)CNC1=O [ANP-Ser25/Tn]
37° C., MALDI-TOF
  residual full length / partially intact peptide detectable after incubation with NEP: 15 min

## Ser23-Tn: Galanin Ser23-Tn glycoform
  time to complete degradation by NEP: 120 min

## CC[C@H](C)[C@H](NC(=O)[C@H](CO)NC(=O)[C@H](CC(N)=O)NC(=O)[C@H](CC(C)C)NC(=O)[C@H](Cc1ccc(O)cc1)NC(=O)[C@H](CCCCN)NC(=O)[C@H](CCCCN)NC(=O)[C@@H](NC(=O)[C@H](C)NC(=O)[C@H](CCSC)NC(=O)[C@H](CCC(N)=O)NC(=O)[C@H](CCCCN)NC(=O)[C@H](CCCNC(=N)N)NC(=O)[C@H](CC(C)C)NC(=O)[C@H](CCCNC(=N)N)NC(=O)[C@@H](NC(=O)[C@H](Cc1ccc(O)cc1)NC(=O)[C@H](CC(N)=O)NC(=O)[C@H](CC(=O)O)NC(=O)[C@@H](NC(=O)[C@H](Cc1ccccc1)NC(=O)[C@@H](NC(=O)[C@H](C)NC(=O)[C@H](CC(=O)O)NC(=O)[C@H](CO)NC(=O)[C@@H](N)Cc1c[nH]cn1)C(C)C)[C@@H](C)O[C@H]1O[C@H](CO)[C@H](O)[C@H](O[C@@H]2O[C@H](CO)[C@H](O)[C@H](O)[C@H]2O)[C@H]1NC(C)=O)[C@@H](C)O)C(C)C)C(=O)N[C@@H](CC(C)C)C(=O)N[C@@H](CC(N)=O)C(N)=O [VIP-Thr7/T]
37° C., MALDI-TOF
  residual full length / partially intact peptide detectable after incubation with NEP: 30 min

## CC[C@H](C)[C@@H]1NC(=O)[C@H](CCCNC(=N)N)NC(=O)[C@H](CC(=O)O)NC(=O)[C@H](CCSC)NC(=O)[C@H](CCCNC(=N)N)NC(=O)CNC(=O)CNC(=O)[C@H](Cc2ccccc2)NC(=O)[C@@H](NC(=O)[C@H](CO)NC(=O)[C@H](CO)NC(=O)[C@H](CCCNC(=N)N)NC(=O)[C@H](CCCNC(=N)N)NC(=O)[C@H](CC(C)C)NC(=O)[C@@H](N)CO)CSSC[C@@H](C(=O)N[C@@H](CC(N)=O)C(=O)N[C@@H](CO[C@H]2O[C@H](CO)[C@H](O)[C@H](O)[C@H]2NC(C)=O)C(=O)N[C@@H](Cc2ccccc2)C(=O)N[C@@H](CCCNC(=N)N)C(=O)N[C@@H](Cc2ccc(O)cc2)C(=O)O)NC(=O)CNC(=O)[C@H](CC(C)C)NC(=O)CNC(=O)[C@H](CO[C@H]2O[C@H](CO)[C@H](O)[C@H](O)[C@H]2NC(C)=O)NC(=O)[C@H](CCC(N)=O)NC(=O)[C@H](C)NC(=O)CNC1=O [ANP-Ser19+25/Tn]
37° C.
  major degradation products remained detectable after incubation with neprilysin: 24 h
37° C., MALDI-TOF
  residual full length / partially intact peptide detectable after incubation with NEP: 30 min

## CC(C)C[C@H](NC(=O)CNC(=O)[C@H](CCC(N)=O)NC(=O)[C@H](CC(C)C)NC(=O)[C@H](CC(C)C)NC(=O)[C@H](CCCNC(=N)N)NC(=O)[C@H](CCC(N)=O)NC(=O)[C@H](CC(C)C)NC(=O)[C@H](CCCNC(=N)N)NC(=O)[C@H](C)NC(=O)CNC(=O)[C@H](CCC(=O)O)NC(=O)[C@H](CCCNC(=N)N)NC(=O)[C@H](CC(C)C)NC(=O)[C@H](CCCNC(=N)N)NC(=O)[C@H](CO)NC(=O)[C@H](CC(C)C)NC(=O)[C@H](CCC(=O)O)NC(=O)[C@H](CO)NC(=O)[C@@H](NC(=O)[C@H](Cc1ccccc1)NC(=O)[C@@H](NC(=O)CNC(=O)[C@H](CC(=O)O)NC(=O)[C@H](CO)NC(=O)[C@@H](N)Cc1c[nH]cn1)[C@@H](C)O)[C@@H](C)O)C(=O)N[C@H](C(N)=O)C(C)C [Secretin, reference compound]
37° C., MALDI-TOF
  time to complete degradation by NEP: ≤ 60 min

## Ser23-T: Galanin Ser23 T extended glycoform
  time to complete degradation by NEP: 120 min

## CC[C@H](C)[C@@H]1NC(=O)[C@H](CCCNC(=N)N)NC(=O)[C@H](CC(=O)O)NC(=O)[C@H](CCSC)NC(=O)[C@H](CCCNC(=N)N)NC(=O)CNC(=O)CNC(=O)[C@H](Cc2ccccc2)NC(=O)[C@@H](NC(=O)[C@H](CO)NC(=O)[C@H](CO)NC(=O)[C@H](CCCNC(=N)N)NC(=O)[C@H](CCCNC(=N)N)NC(=O)[C@H](CC(C)C)NC(=O)[C@@H](N)CO)CSSC[C@@H](C(=O)N[C@@H](CC(N)=O)C(=O)N[C@@H](CO)C(=O)N[C@@H](Cc2ccccc2)C(=O)N[C@@H](CCCNC(=N)N)C(=O)N[C@@H](Cc2ccc(O)cc2)C(=O)O)NC(=O)CNC(=O)[C@H](CC(C)C)NC(=O)CNC(=O)[C@H](CO[C@H]2O[C@H](CO)[C@H](O)[C@H](O)[C@H]2NC(C)=O)NC(=O)[C@H](CCC(N)=O)NC(=O)[C@H](C)NC(=O)CNC1=O [ANP-Ser19/Tn]
37° C.
  major degradation products remained detectable after incubation with neprilysin: 24 h
37° C., MALDI-TOF
  residual full length / partially intact peptide detectable after incubation with NEP: 60 min

## CC[C@H](C)[C@H](NC(=O)[C@H](CO)NC(=O)[C@H](CC(N)=O)NC(=O)[C@H](CC(C)C)NC(=O)[C@H](Cc1ccc(O)cc1)NC(=O)[C@H](CCCCN)NC(=O)[C@H](CCCCN)NC(=O)[C@@H](NC(=O)[C@H](C)NC(=O)[C@H](CCSC)NC(=O)[C@H](CCC(N)=O)NC(=O)[C@H](CCCCN)NC(=O)[C@H](CCCN=C(N)N)NC(=O)[C@H](CC(C)C)NC(=O)[C@H](CCCN=C(N)N)NC(=O)[C@@H](NC(=O)[C@H](Cc1ccc(O)cc1)NC(=O)[C@H](CC(N)=O)NC(=O)[C@H](CC(=O)O)NC(=O)[C@@H](NC(=O)[C@H](Cc1ccccc1)NC(=O)[C@@H](NC(=O)[C@H](C)NC(=O)[C@H](CC(=O)O)NC(=O)[C@H](CO)NC(=O)[C@@H](N)Cc1c[nH]cn1)C(C)C)[C@@H](C)O)[C@@H](C)O)C(C)C)C(=O)N[C@@H](CC(C)C)C(=O)N[C@@H](CC(N)=O)C(N)=O [VIP, Vasoactive intestinal peptide, reference compound]
37° C., MALDI-TOF
  time to complete degradation by NEP: 15 min

## CC(=O)N[C@H]1[C@@H](O[C@H](C)[C@H](NC(=O)[C@H](Cc2ccccc2)NC(=O)[C@@H](NC(=O)CNC(=O)[C@H](CC(=O)O)NC(=O)[C@H](CO)NC(=O)[C@@H](N)Cc2c[nH]cn2)[C@@H](C)O)C(=O)N[C@@H](CO)C(=O)N[C@@H](CCC(=O)O)C(=O)N[C@@H](CC(C)C)C(=O)N[C@@H](CO)C(=O)N[C@@H](CCCNC(=N)N)C(=O)N[C@@H](CC(C)C)C(=O)N[C@@H](CCCNC(=N)N)C(=O)N[C@@H](CCC(=O)O)C(=O)NCC(=O)N[C@@H](C)C(=O)N[C@@H](CCCNC(=N)N)C(=O)N[C@@H](CC(C)C)C(=O)N[C@@H](CCC(N)=O)C(=O)N[C@@H](CCCNC(=N)N)C(=O)N[C@@H](CC(C)C)C(=O)N[C@@H](CC(C)C)C(=O)N[C@@H](CCC(N)=O)C(=O)NCC(=O)N[C@@H](CC(C)C)C(=O)N[C@H](C(N)=O)C(C)C)O[C@H](CO)[C@H](O)[C@@H]1O [Secretin-Thr7-Tn]
37° C., MALDI-TOF
  remained (completely) intact after incubation with NEP: 60 min
